Results taken from patent publication US20240000074A1, “LOW DRIFT, RAINFASTNESS, HIGH SPREADING, HIGH UPTAKE AND ULV TANK MIX ADJUVANT FORMULATION” (BAYER AKTIENGESELLSCHAFT, priority 2020, published 2024).

Test system: Apple leaf cuticles
Experiment: Apple cuticle penetration test (SOFU, simulation of foliar uptake)
Format: in vitro ADME
Conditions: Spray volume 650 l/ha; no additives
Description: The cuticle penetration test is a further developed and adapted version of the test method SOFU (simulation of foliar uptake) originally described by Schonherr and Baur (Schonherr, J., Baur, P. (1996), Effects of temperature, surfactants and other adjuvants on rates of uptake of organic compounds. In: The plant cuticle—an integrated functional approach, 134-155. Kerstiens, G. (ed.), BIOS Scientific publisher, Oxford); it is well suited for systematic and mechanistic studies on the effects of formulations, adjuvants and solvents on the penetration of agrochemicals.
Apple leaf cuticles were isolated from leaves taken from trees growing in an orchard as described by Schönherr and Riederer (Schönherr, J., Riederer, M. (1986), Plant cuticles sorb lipophilic compounds during enzymatic isolation. Plant Cell Environ. 9, 459-466). Only the astomatous cuticular membranes of the upper leaf surface lacking stomatal pores were obtained. Discs having diameters of 18 mm were punched out of the leaves and infiltrated with an enzymatic solution of pectinase and cellulase. […] After storage for about four weeks the permeability of the cuticles reaches a constant level and the cuticular membranes are ready for the use in the penetration test. […]
An autosampler took aliquots of the acceptor in regular intervals and the content of active ingredient is determined by HPLC (DAD or MS). […]

Structure (SMILES)	Penetration rate of tebuconazole After 24 hours	Penetration rate of spirotetramate After 48 hours
CC(C)(C)C(O)(CCc1ccc(Cl)cc1)Cn1cncn1 (centres unmarked) [tebuconazole]	4%	
CCOC(=O)OC1=C(c2cc(C)ccc2C)C(=O)N[C@]12CC[C@@H](OC)CC2 [spirotetramate]		0%
